Assay results taken from patent US8465769B2, “Pharmaceutical composition with controlled active ingredient release for active ingredients with good solubility in water” (Evonik Roehm GmbH, priority 2006, dated 2013).
Converted amounts (≈) assume the structure as drawn. Structures can show the parent of a compound that is named as a salt. Where two headings read alike, the source gives them in different places.

Test: Solubility of the active ingredients in water
Assay type: physicochemical
Conditions: thermodynamic from solid
Procedure: The invention is suitable for active ingredients which have a solubility in water of at least 10 g/l, preferably at least 30 g/l, particularly preferably of at least 50 g/l, especially preferably of at least 100 g/l, 200 g/l, 300 g/l or 400 g/l at 20° C. (solubility in water based on standard methods such as, for example, Pharmeuropa—Technical Guide for the Elaboration of Monographs, 3rd Edition (1999), Chapter IV, Appendix IV (incorporated by reference) with vigorous shaking for 1 min, leaving to stand for 15 min at 20° C. in purified water). These ranges include all intermediate values and subranges.

Q: With `CNC[C@H](O)c1cccc(O)c1` [Phenylephrine hydrochloride] as the compound, how does the solubility at 15 min (20 °C) read?
A: 500 mg/mL

Q: Which solubility at 15 min (20 °C) does the source give for `CC(C)(C)NCC(O)c1cc(O)cc(O)c1` (stereo not drawn) [Terbutaline sulphate] here?
A: 500 mg/mL

Q: With `Cn1c(=O)c2[nH]cnc2n(C)c1=O` [Theophylline] as the compound, how does the solubility at 15 min (at 20° C., Pharmeuropa Technical Guide method, shaking for 15 min, read-out: solubility in water) read?
A: 8.4 mg/mL (≈ 46.6 mM)
